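The compound was tested at five concentrations on cells cultured in 96-well plates, with a 48-hour exposure period. GI50 = concentration required for 50% inhibition of growth.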 Calls of active or inactive are those of the source. Rule as the data show it: active = GI50 up to about 1.1 µM and inactive = higher.
Experiments:
Assay in all cases: NCI anticancer screen, dose series, 48 h
SNB-19 = system: SNB-19
SW-620 = system: SW-620
SN12C = system: SN12C
786-0 = system: 786-0
MOLT-4 = system: MOLT-4
Malme-3M = system: Malme-3M
NCI-H23 = system: NCI-H23
OVCAR-3 = system: OVCAR-3
UO-31 = system: UO-31
OVCAR-8 = system: OVCAR-8
UACC-62 = system: UACC-62
UACC-257 = system: UACC-257
NCI-H226 = system: NCI-H226
M14 = system: M14
HCC 2998 = system: HCC 2998
RPMI-8226 = system: RPMI-8226
A549 = system: A549

| Compound | GI50 (SNB-19) | GI50 (SW-620) | GI50 (SN12C) | GI50 (786-0) | GI50 (MOLT-4) | GI50 (Malme-3M) | GI50 (NCI-H23) | GI50 (OVCAR-3) | GI50 (UO-31) | GI50 (OVCAR-8) | GI50 (UACC-62) | GI50 (UACC-257) | GI50 (NCI-H226) | GI50 (M14) | GI50 (HCC 2998) | GI50 (RPMI-8226) | GI50 (A549) |
| --- | --- | --- | --- | --- | --- | --- | --- | --- | --- | --- | --- | --- | --- | --- | --- | --- | --- |
| COC1(OC)c2ccccc2C2(O)c3ccccc3C(=O)C12 (stereo not given) | 74.5 µM (inactive) | 71 µM (inactive) | 60.8 µM (inactive) | 52.6 µM (inactive) | 10.9 µM (inactive) | 38 µM (inactive) | 47.4 µM (inactive) | 28.8 µM (inactive) | 16.4 µM (inactive) | 39.4 µM (inactive) | 13.6 µM (inactive) | 17.9 µM (inactive) | 27 µM (inactive) | 23.9 µM (inactive) | 57.1 µM (inactive) | 5.79 µM (inactive) | – |
| O=C(Nc1ccccc1)c1ccc(Cl)c([N+](=O)[O-])c1 | 15.5 µM (inactive) | 4.85 µM (inactive) | 5.21 µM (inactive) | 4.85 µM (inactive) | 3.85 µM (inactive) | 20.5 µM (inactive) | 23 µM (inactive) | 19.1 µM (inactive) | 36.1 µM (inactive) | 9.33 µM (inactive) | 6.68 µM (inactive) | 15.4 µM (inactive) | 25.2 µM (inactive) | 10.2 µM (inactive) | – | 3.88 µM (inactive) | 20.2 µM (inactive) |
| CC(NC(=O)C(=O)N/N=C1\C[C@@H](c2ccccc2)Nc2ccccc21)c1ccccc1 (stereo not given in full) | > 100 µM (inactive) | > 100 µM (inactive) | 1.06 µM (active) | > 100 µM (inactive) | – | 20.5 µM (inactive) | > 100 µM (inactive) | > 100 µM (inactive) | 33 µM (inactive) | > 100 µM (inactive) | – | 0.382 µM (active) | 10.4 µM (inactive) | > 100 µM (inactive) | > 100 µM (inactive) | – | > 100 µM (inactive) |
| CNS(=O)(=O)NNS(=O)(=O)c1ccc(F)cc1 | > 100 µM (inactive) | > 100 µM (inactive) | – | > 100 µM (inactive) | > 100 µM (inactive) | – | > 100 µM (inactive) | > 100 µM (inactive) | > 100 µM (inactive) | > 100 µM (inactive) | > 100 µM (inactive) | > 100 µM (inactive) | > 100 µM (inactive) | > 100 µM (inactive) | – | > 100 µM (inactive) | > 100 µM (inactive) |
| NCc1c(C(N)=O)ncn1Cc1ccccc1 | > 100 µM (inactive) | > 100 µM (inactive) | > 100 µM (inactive) | > 100 µM (inactive) | > 100 µM (inactive) | – | > 100 µM (inactive) | > 100 µM (inactive) | – | > 100 µM (inactive) | > 100 µM (inactive) | > 100 µM (inactive) | – | > 100 µM (inactive) | > 100 µM (inactive) | > 100 µM (inactive) | > 100 µM (inactive) |
| CC(=O)NNc1nc(C)c(C(/C=C/c2ccc(Cl)cc2)=N/NC(=O)C[N+](C)(C)C)s1 | > 100 µM (inactive) | > 100 µM (inactive) | – | > 100 µM (inactive) | > 100 µM (inactive) | > 100 µM (inactive) | > 100 µM (inactive) | > 100 µM (inactive) | > 100 µM (inactive) | – | > 100 µM (inactive) | > 100 µM (inactive) | > 100 µM (inactive) | > 100 µM (inactive) | > 100 µM (inactive) | – | > 100 µM (inactive) |
| Nc1nc(N)c(-c2ccccc2)c(C(=O)Nc2nccs2)n1 | > 100 µM (inactive) | > 100 µM (inactive) | > 100 µM (inactive) | > 100 µM (inactive) | > 100 µM (inactive) | > 100 µM (inactive) | > 100 µM (inactive) | > 100 µM (inactive) | > 100 µM (inactive) | > 100 µM (inactive) | > 100 µM (inactive) | > 100 µM (inactive) | > 100 µM (inactive) | > 100 µM (inactive) | > 100 µM (inactive) | – | > 100 µM (inactive) |
| O=C(NN1C(=O)CS(=O)(=O)C1c1cccc(F)c1)c1ccncc1 (stereo not given) | > 100 µM (inactive) | > 100 µM (inactive) | > 100 µM (inactive) | > 100 µM (inactive) | > 100 µM (inactive) | > 100 µM (inactive) | > 10 µM (inactive) | – | – | – | – | > 100 µM (inactive) | > 100 µM (inactive) | > 100 µM (inactive) | > 100 µM (inactive) | > 100 µM (inactive) | > 100 µM (inactive) |
| Cc1ccc(Nc2nc(C)c(C(/C=C/c3ccc4c(c3)OCO4)=N/Nc3ccc([N+](=O)[O-])cc3[N+](=O)[O-])s2)c([N+](=O)[O-])c1 | 83 µM (inactive) | 45 µM (inactive) | 28 µM (inactive) | 91.2 µM (inactive) | 21.7 µM (inactive) | 65.3 µM (inactive) | 33.2 µM (inactive) | 35.2 µM (inactive) | 21.8 µM (inactive) | 70.3 µM (inactive) | 3.59 µM (inactive) | 53 µM (inactive) | 25 µM (inactive) | 61.7 µM (inactive) | 28.6 µM (inactive) | – | 45.8 µM (inactive) |
| CCCCCCCCCCCCC/C=C1\C[C@H](O)COC1=O | 18.9 µM (inactive) | 15.4 µM (inactive) | 14.9 µM (inactive) | 16 µM (inactive) | – | 21 µM (inactive) | 20.4 µM (inactive) | 17.5 µM (inactive) | 18.6 µM (inactive) | – | 13.7 µM (inactive) | 14.8 µM (inactive) | 16.3 µM (inactive) | 15 µM (inactive) | 20.9 µM (inactive) | 17.5 µM (inactive) | 19.5 µM (inactive) |
| COc1cc(C(C)c2cc3c(cc2OCCNC(=O)COc2cc4c(cc2C(C)c2cc(OC)c(OC)c(OC)c2)OCO4)OCO3)cc(OC)c1OC (stereo not given) | > 100 µM (inactive) | > 100 µM (inactive) | 60 µM (inactive) | 49.8 µM (inactive) | 7.13 µM (inactive) | > 100 µM (inactive) | > 100 µM (inactive) | 67.3 µM (inactive) | > 100 µM (inactive) | 49.5 µM (inactive) | 6.78 µM (inactive) | 6.56 µM (inactive) | > 100 µM (inactive) | 85.3 µM (inactive) | > 100 µM (inactive) | – | > 100 µM (inactive) |
| N#CC(/C(CCCC(=O)Nc1cccc([N+](=O)[O-])c1)=N\NC(=O)c1c(O)ccc2ccccc12)c1nc2ccccc2s1 (stereo not given) | 36.8 µM (inactive) | 44.8 µM (inactive) | 25.6 µM (inactive) | 34.6 µM (inactive) | 11.7 µM (inactive) | 35 µM (inactive) | 37.5 µM (inactive) | 16.3 µM (inactive) | 14.3 µM (inactive) | 18.5 µM (inactive) | – | 35.5 µM (inactive) | 21.9 µM (inactive) | 26.9 µM (inactive) | – | – | 10.8 µM (inactive) |
| CCC(=O)OC[n+]1ccc2c(C)c3[nH]c4ccc(OC)cc4c3c(C)c2c1 | 1.57 µM (inactive) | 0.0288 µM (active) | < 0.01 µM (active) | 0.176 µM (active) | 0.0142 µM (active) | 0.627 µM (active) | 0.22 µM (active) | 1.34 µM (inactive) | – | 0.0755 µM (active) | – | 0.7 µM (active) | 0.348 µM (active) | 0.333 µM (active) | – | 0.182 µM (active) | 0.135 µM (active) |
| CC1OC(n2ccc3ccc([N+](=O)[O-])cc32)C(O)C(O)C1O (stereo not given) | > 100 µM (inactive) | > 100 µM (inactive) | > 100 µM (inactive) | > 100 µM (inactive) | > 100 µM (inactive) | > 100 µM (inactive) | > 100 µM (inactive) | > 100 µM (inactive) | > 100 µM (inactive) | > 100 µM (inactive) | > 100 µM (inactive) | > 100 µM (inactive) | > 100 µM (inactive) | > 100 µM (inactive) | – | > 100 µM (inactive) | > 100 µM (inactive) |
| CC(=O)N(C)c1ccc2c(ccc[n+]2[O-])c1[N+](=O)[O-] | – | > 100 µM (inactive) | > 100 µM (inactive) | > 100 µM (inactive) | > 100 µM (inactive) | > 100 µM (inactive) | > 100 µM (inactive) | > 100 µM (inactive) | > 100 µM (inactive) | > 100 µM (inactive) | > 100 µM (inactive) | > 100 µM (inactive) | > 100 µM (inactive) | > 100 µM (inactive) | > 100 µM (inactive) | > 100 µM (inactive) | > 100 µM (inactive) |
| Cc1ccc(C(=O)Nc2ccccc2)cc1/N=N/N(C)C | > 100 µM (inactive) | > 100 µM (inactive) | > 100 µM (inactive) | 21 µM (inactive) | – | – | > 100 µM (inactive) | > 100 µM (inactive) | > 100 µM (inactive) | > 100 µM (inactive) | > 100 µM (inactive) | > 100 µM (inactive) | – | > 100 µM (inactive) | > 100 µM (inactive) | – | > 100 µM (inactive) |
| O=C(/C=C\c1cccc2ccccc12)c1ccc(Cl)cc1Cl | 28.8 µM (inactive) | 20 µM (inactive) | > 100 µM (inactive) | 18.7 µM (inactive) | 28.5 µM (inactive) | 26.7 µM (inactive) | 40.6 µM (inactive) | 20.2 µM (inactive) | 53 µM (inactive) | 18.7 µM (inactive) | 16.7 µM (inactive) | 27 µM (inactive) | > 100 µM (inactive) | 19.4 µM (inactive) | 32.4 µM (inactive) | 18 µM (inactive) | 62.1 µM (inactive) |
| O=[N+]([O-])c1nccn1CC(O)c1ccccc1 (stereo not given) | > 100 µM (inactive) | > 100 µM (inactive) | > 100 µM (inactive) | > 100 µM (inactive) | > 100 µM (inactive) | > 100 µM (inactive) | > 100 µM (inactive) | > 100 µM (inactive) | > 100 µM (inactive) | > 100 µM (inactive) | > 100 µM (inactive) | > 100 µM (inactive) | > 100 µM (inactive) | > 100 µM (inactive) | – | > 100 µM (inactive) | > 100 µM (inactive) |
